Assay results published in patent publication US6020343A, “(Methylsulfonyl)phenyl-2-(5H)-furanones as COX-2 inhibitors” (Merck Frosst Canada, Inc., priority 1998, dated 2000).
Each block holds one compound with its values, some of them ahead of it.

Columns and labels:
[1] = target: T1, COX-1 (Homo sapiens, UniProt P23219); test: Human Whole Blood Assay, COX-1 (Clotting-induced TxB2 Production); assay type: cell-based; parameters: endogenous in cells; conditions: clotting-induced TxB2, 1 hour, Table III, read-out: COX-1 (IC50) HWB
T1 sequence (P23219 24-599): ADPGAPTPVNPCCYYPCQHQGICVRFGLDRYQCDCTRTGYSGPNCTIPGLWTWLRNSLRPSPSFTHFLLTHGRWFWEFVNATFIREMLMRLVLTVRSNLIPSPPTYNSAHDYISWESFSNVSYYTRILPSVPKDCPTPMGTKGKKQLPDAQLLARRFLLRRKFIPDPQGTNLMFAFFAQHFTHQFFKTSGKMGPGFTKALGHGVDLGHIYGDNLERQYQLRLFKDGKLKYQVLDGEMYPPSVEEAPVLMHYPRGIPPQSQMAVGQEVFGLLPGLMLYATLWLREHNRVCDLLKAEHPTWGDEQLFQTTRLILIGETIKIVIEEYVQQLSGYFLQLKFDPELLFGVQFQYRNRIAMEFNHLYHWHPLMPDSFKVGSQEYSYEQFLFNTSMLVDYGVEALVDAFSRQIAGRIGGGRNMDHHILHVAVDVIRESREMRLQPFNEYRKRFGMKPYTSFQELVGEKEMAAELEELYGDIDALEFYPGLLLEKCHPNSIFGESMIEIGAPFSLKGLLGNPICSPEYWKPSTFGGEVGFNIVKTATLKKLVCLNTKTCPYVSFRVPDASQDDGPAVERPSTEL
Source text: As well, platelets in whole blood contain a large amount of the COX-1 enzyme. Immediately following blood clotting, platelets are activated through a thrombin-mediated mechanism. […] Therefore, the degree of selectivity by the test compound can be determined by measuring the levels of PGE2 after LPS induction (COX-2) and TxB2 following blood clotting (COX-1) in the same assay.
B. COX-1 (Clotting-induced TxB2 Production)
Fresh blood is collected into vacutainers containing no anticoagulants. Aliquots of 500 μL are immediately transferred to siliconized microcentrifuge tubes preloaded with 2 μL of either DMSO or a test compound at final concentrations varying from 10 nM to 30 μM. The tubes are vortexed and incubated at 37° C. for 1 hour to allow blood to clot. At the end of incubation, serum is obtained by centrifugation (12,000×g for 5 min.). A 100 μL aliquot of serum is mixed with 400 μL of methanol for protein precipitation.

[2] = target: T1, COX-1; test: Assay of COX-1 Activity from U937 Cell Microsomes (U937); assay type: biochemical; parameters: human U-937 cells (which specifically express COX-1); endogenous in cells; host or cells: microsomes of U937 cells; conditions: U937, PGE2; Table III
Procedure: Compounds are tested as inhibitors of cyclooxygenase activity in whole cell cyclooxygenase assays. Both of these assays measure prostaglandin E2 synthesis in response to arachidonic acid, using a radioimmunoassay. Cells used for these assays are human osteosarcoma 143 cells (which specifically express COX-2) and human U-937 cells (which specifically express COX-1). In these assays, 100% activity is defined as the difference between prostaglandin E2 synthesis in the absence and presence of arachidonate.
For cyclooxygenase assays, osteosarcoma cells are cultured in 1 mL of media in 24-well multidishes (Nunclon) until confluent (1-2×10^5 cells/well). […] All assays are performed in triplicate. […] Arachidonic acid (peroxide-free, Cayman Chemical) is prepared as a 10 mM stock solution in ethanol and further diluted 10-fold in HBSS. An aliquot of 10 μL of this diluted solution is added to the cells to give a final arachidonic acid concentration of 10 μM. Control samples are incubated with ethanol vehicle instead of arachidonic acid. Samples are again gently mixed and incubated for a further 10 min. at 37° C. For osteosarcoma cells, reactions are then stopped by the addition of 100 μL of 1N HCl, with mixing and by the rapid removal of the solution from cell monolayers. For U-937 cells, reactions are stopped by the addition of 100 μL of 1N HCl, with mixing.
U 937 cells are pelleted by centrifugation at 500×g for 5 min and washed once with phosphate-buffered saline and repelleted. Cells are resuspended in homogenization buffer consisting of 0.1 M Tris-HCl, pH 7.4, 10 mM EDTA, 2 μg/ml leupeptin, 2 μg/ml soybean trypsin inhibitor, 2 μg/ml aprotinin and 1 mM phenyl methyl sulfonyl fluoride. The cell suspension is sonicated 4 times for 10 sec and is centrifuged at 10,000×g for 10 min at 4° C. The supernatant is centrifuged at 100,000×g for 1 hr at 4° C. The 100,000×g microsomal pellet is resuspended in 0.1 M Tris-HCl, pH 7.4, 10 mM EDTA to approximately 7 mg protein/ml and stored at -80° C.
Assays are performed in duplicate in a final volume of 250 μl. […]

[3] = target: T2, CHO [hCOX-1] (Homo sapiens, UniProt P23219); test: Whole Cell Assay for COX-1 using CHO Transfected Cell Lines; assay type: cell-based; conditions: CHO [hCOX-1] cells, 0.5 μM AA, PGE2
T2 construct: expressed in transfected cells; host or cells: Chinese hamster ovary (CHO) cells, vector pCDNAIII
T2 sequence (P23219 24-599): as above
Procedure: Chinese hamster ovary (CHO) cell lines which have been stably transfected with an eukaryotic expression vector pCDNAIII containing either the human COX-1 or COX-2 cDNA's are used for the assay. These cell lines are referred to as CHO [hCOX-1] and CHO [hCOX-2], respectively. […] Cells (0.3×10^6 cells in 200 μl) are preincubated with 3 μl of the test drug or DMSO vehicle for 15 min at 37° C. […] Cells are then challenged in the presence or absence of drug with the AA/HBSS solution to yield a final concentration of 0.5 μM AA in the CHO[hCOX-1] assay and a final concentration of 10 μM AA in the CHO[hCOX-2] assay. […] The samples are centrifuged at 300×g at 4° C. for 10 min, and an aliquot of the clarified supernatant is appropriately diluted for the determination of PGE2 levels using an enzyme-linked immunoassay for PGE2 (Correlate PGE2 enzyme immunoassay kit, Assay Designs, Inc.). Cyclooxygenase activity in the absence of test compounds is determined as the difference in PGE2 levels of cells challenged with arachidonic acid versus the PGE2 levels in cells mock-challenged with ethanol vehicle. Inhibition of PGE2 synthesis by test compounds is calculated as a percentage of the activity in the presence of drug versus the activity in the positive control samples.

[4] = tested on: carrageenan-induced paw edema; test: Rat Paw Edema Assay; assay type: in vivo, Male Sprague-Dawley rats; conditions: po, paw volume 3 hr, Table IV
Procedure: Male Sprague-Dawley rats (150-200 g) are fasted overnight and are given, po, either vehicle (1% methocel or 5% Tween 80) or a test compound. One hr later, a line is drawn using a permanent marker at the level above the ankle in one hind paw to define the area of the paw to be monitored. The paw volume (V0) is measured using a plethysmometer (Ugo-Basile, Italy) based on the principle of water displacement. The animals are then injected subplantarly with 50 μl of 1% carrageenan solution in saline (FMC Corp, Maine) into the paw using an insulin syringe with a 25-gauge needle (i.e. 500 μg carrageenan per paw). Three hr later, the paw volume (V3) is measured and the increases in paw volume (V3 -VO) are calculated. The animals are sacrificed by CO2 asphyxiation and the absence or presence of stomach lesions scored. Data is compared with the vehicle-control values and percent inhibition calculated. All treatment groups are coded to eliminate observer bias.

SMILES: CC1(C)OC(=O)C(Oc2cccc(F)c2)=C1c1ccc(S(C)(=O)=O)cc1 [Example 2, 3-(3-Fluorophenoxy)-5,5-dimethyl-4-(4-(methylsulfonyl)phenyl)-5H-furan-2-one]
IC50 [1]: 23 µM

SMILES: CC1(C)OC(=O)C(Oc2cc(F)cc(F)c2)=C1c1ccc(S(C)(=O)=O)cc1 [Example 3]
IC50 [2]: 1000 nM

SMILES: CC1(C)OC(=O)C(Oc2ccc(Cl)cc2)=C1c1ccc(S(C)(=O)=O)cc1 [Example 6, 3-(4-Chlorophenoxy)-5,5-dimethyl-4-(4-(methylsulfonyl)phenyl)-5H-furan-2-one]
IC50 [1]: 1.8 µM

SMILES: CS(=O)(=O)c1ccc(C2=C(Sc3ccccc3)C(=O)OC2)cc1 [Example 15, 3-Phenylthio-4-(4-(methylsulfonyl)phenyl)-5H-furan-2-one]
IC50 [2]: > 10000 nM

SMILES: CC1(C)OC(=O)C(Oc2ccc(F)cn2)=C1c1ccc(S(C)(=O)=O)cc1 [Example 58]
IC50 ([3]; Table IV): > 50 µM
ED50 [4]: 0.32 mg/kg

The next lines start with the values.

IC50 ([3]; Table III): > 50 µM
SMILES: CC1(C)OC(=O)C(C(=O)c2ccccc2)=C1c1ccc(S(C)(=O)=O)cc1 [Example 19b, 3-Benzoyl-5,5-dimethyl-4-(4-(methylsulfonyl)phenyl)-5H-furan-2-one]

IC50 [2]: 3000 nM
SMILES: CC1(C)OC(=O)C(Oc2ccc(Cl)cn2)=C1c1ccc(S(C)(=O)=O)cc1 [Example 25, 3-(5-Chloro-2-pyridyloxy)-5,5-dimethyl-4-(4-(methylsulfonyl)phenyl)-5H-furan-2-one]

IC50 ([3]; Table IV): > 50 µM
SMILES: CC1(C)OC(=O)C(Oc2ccc(Br)cn2)=C1c1ccc(S(C)(=O)=O)cc1 [Example 108]
